Data taken from EP4685149A1, “NOVEL COMPOUND AS ENDOTHELIAL TO MESENCHYMAL TRANSITION (ENDMT) INHIBITOR, AND PHARMACEUTICAL COMPOSITION COMPRISING SAME” (Korea Institute of Radiological & Medical Sciences, priority 2023, dated 2024).
Like-named read-outs stand apart in the source and are kept apart here.

Tested on: human vascular endothelial cell lines
Assay: Inhibition of radiation-induced endothelial cell transition (EndMT), phalloidin immunofluorescence staining
Assay type: cell-based
Conditions: 10 uM test substance 1 hour before 10 Gy irradiation, 72 hours after irradiation, relative ratio with IR group (10 Gy alone) as 100%; for activity at 10 µM: Homo sapiens, Endothelial cell, light or radiation study
Experimental: Test substances (Examples 1 to 45) were treated with a 10 mM DMSO solution at a ratio of 1 µL per 1 mL of cell culture medium to a final concentration of 10 uM, and the test substances were treated 1 hour before irradiation on human vascular endothelial cell lines (Promocell, Germany), and then, it was irradiated at an intensity of 10 Gy. 72 hours after irradiation, the human vascular endothelial cell lines were fixed with 10% formalin, and the experiment was conducted according to the manufacturer's method using phalloidin (Invitrogen, USA) to confirm the cytoskeleton filaments that increase during fibrosis. Phalloidin is a protein that binds to the actin of cytoskeleton filaments, and phalloidin conjugated with FITC fluorescent substance made the cytoskeleton filaments appear green when observed under a microscope.
After treatment with the test substance, the area, length and density of phalloidin were measured by using a confocal microscope, and the relative ratio was expressed with the irradiated group (IR group) that was irradiated with 10 Gy alone as 100% (Table 1).

O[C@@H]1[C@H](O)CS[C@H]1n1cnc2c(NC3CCCc4ccccc43)nc(Cl)nc21 (stereo partly drawn) [Example 38, (2R,3R,4S)-2-(2-chloro-6-((1,2,3,4-tetrahydronaphthalen-1-yl)amino)-9H-purin-9-yl)tetrahydrothiophene-3,4-diol]
activity at 10 µM (read-out: Palloidin Area): > 80% | activity at 10 µM (read-out: Palloidin Intensity): > 80% | activity at 10 µM (read-out: Palloidin Length): > 80%

N#Cc1cccc2c1CC[C@H]2Nc1nc(Cl)nc2c1ncn2[C@@H]1SC[C@@H](O)[C@H]1O [Example 24, (1R)-1-[[2-chloro-9-[(2R,3R,4S)-3,4-dihydroxytetrahydrothiophen-2-yl]purin-6-yl]amino]indane-4-carbonitrile]
activity at 10 µM (read-out: Palloidin Area): 50 to 80% | activity at 10 µM (read-out: Palloidin Intensity): 50 to 80% | activity at 10 µM (read-out: Palloidin Length): 50 to 80%

O[C@@H]1[C@H](O)CS[C@H]1n1cnc2c(N[C@@H]3CCCc4ccccc43)nc(Cl)nc21 [Example 39, (2R,3R,4S)-2-(2-chloro-6-(((R)-1,2,3,4-tetrahydronaphthalen-1-yl)amino)-9H-purin-9-yl)tetrahydrothiophene-3,4-diol]
activity at 10 µM (read-out: Palloidin Area): > 80% | activity at 10 µM (read-out: Palloidin Intensity): > 80% | activity at 10 µM (read-out: Palloidin Length): > 80%

O[C@@H]1[C@H](O)CS[C@H]1n1cnc2c(N[C@@H]3CCc4ccc(Br)cc43)nc(Cl)nc21 [Example 21, (2R,3R,4S)-2-[2-chloro-6-[[(1R)-6-bromoindan-1-yl]amino]purin-9-yl]tetrahydrothiophene-3,4-diol]
activity at 10 µM (read-out: Palloidin Area): 20 to 50% | activity at 10 µM (read-out: Palloidin Intensity): 20 to 50% | activity at 10 µM (read-out: Palloidin Length): 20 to 50%

O[C@@H]1[C@H](O)CS[C@H]1n1cnc2c(NC3CCCCc4ccccc43)nc(Cl)nc21 (stereo partly drawn) [Example 42, (2R,3R,4S)-2-(2-chloro-6-((6,7,8,9-tetrahydro-5H-benzo[7]annulen-5-yl)amino)-9H-purin-9-yl)tetrahydrothiophene-3,4-diol]
activity at 10 µM (read-out: Palloidin Area): > 80% | activity at 10 µM (read-out: Palloidin Intensity): > 80% | activity at 10 µM (read-out: Palloidin Length): > 80%

COC(=O)c1ccc2c(c1)CC[C@H]2Nc1nc(Cl)nc2c1ncn2[C@@H]1SC[C@@H](O)[C@H]1O [Example 31, Methyl (R)-1-((2-chloro-9-((2R,3R,4S)-3,4-dihydroxytetrahydrothiophen-2-yl)-9H-purin-6-yl)amino)-2,3-dihydro-1H-indene-5-carboxylate]
activity at 10 µM (read-out: Palloidin Area): > 80% | activity at 10 µM (read-out: Palloidin Intensity): > 80% | activity at 10 µM (read-out: Palloidin Length): > 80%

CCCC#Cc1nc(N[C@H]2CCc3ccccc32)c2ncn([C@@H]3SC[C@@H](O)[C@H]3O)c2n1 [Example 6, (2R,3R,4S)-2-[6-[[(1S)-indan-1-yl]amino]-2-pent-1-ynyl-purin-9-yl]tetrahydrothiophene-3,4-diol]
Palloidin Length: ++^+ | activity at 10 µM (read-out: Palloidin Area): 20 to 50% | activity at 10 µM (read-out: Palloidin Intensity): 20 to 50%

O=C(O)c1ccc2c(c1)CC[C@H]2Nc1nc(Cl)nc2c1ncn2[C@@H]1SC[C@@H](O)[C@H]1O [Example 33, (R)-1-((2-chloro-9-((2R,3R,4S)-3,4-dihydroxytetrahydrothiophen-2-yl)-9H-purin-6-yl)amino)-2,3-dihydro-1H-indene-5-carboxylic acid]
activity at 10 µM (read-out: Palloidin Area): > 80% | activity at 10 µM (read-out: Palloidin Intensity): > 80% | activity at 10 µM (read-out: Palloidin Length): > 80%

COc1cccc2c1[C@H](Nc1nc(Cl)nc3c1ncn3[C@@H]1SC[C@@H](O)[C@H]1O)CC2 [Example 14, (2R,3R,4S)-2-[2-chloro-6-[[(1R)-7-methoxyindan-1-yl]amino]purin-9-yl]tetrahydrothiophene-3,4-diol]
activity at 10 µM (read-out: Palloidin Area): 50 to 80% | activity at 10 µM (read-out: Palloidin Intensity): 50 to 80% | activity at 10 µM (read-out: Palloidin Length): 50 to 80%

Cc1cccc2c1CC[C@H]2Nc1nc(Cl)nc2c1ncn2[C@@H]1SC[C@@H](O)[C@H]1O [Example 22, (2R,3R,4S)-2-[2-chloro-6-[[(1R)-4-methylindan-1-yl]amino]purin-9-yl]tetrahydrothiophene-3,4-diol]
Palloidin Length: + + + + | activity at 10 µM (read-out: Palloidin Area): < 20% | activity at 10 µM (read-out: Palloidin Intensity): < 20%

O[C@@H]1[C@H](O)CS[C@H]1n1cnc2c(N[C@@H]3CCc4cc(Cl)ccc43)nc(Cl)nc21 [Example 18, (2R,3R,4S)-2-[2-chloro-6-[[(1R)-5-chloroindan-1-yl]amino]purin-9-yl]tetrahydrothiophene-3,4-diol]
activity at 10 µM (read-out: Palloidin Area): < 20% | activity at 10 µM (read-out: Palloidin Intensity): < 20% | activity at 10 µM (read-out: Palloidin Length): < 20%

O[C@@H]1[C@H](O)CS[C@H]1n1cnc2c(N[C@@H]3CCc4cc(Br)ccc43)nc(Cl)nc21 [Example 20, (2R,3R,4S)-2-[2-chloro-6-[[(1R)-5-bromoindan-1-yl]amino]purin-9-yl]tetrahydrothiophene-3,4-diol]
activity at 10 µM (read-out: Palloidin Area): < 20% | activity at 10 µM (read-out: Palloidin Intensity): 20 to 50% | activity at 10 µM (read-out: Palloidin Length): < 20%

O[C@@H]1[C@H](O)CS[C@H]1n1cnc2c(N[C@@H]3CCc4c(Br)cccc43)nc(Cl)nc21 [Example 19, (2R,3R,4S)-2-[2-chloro-6-[[(1R)-4-bromoindan-1-yl]amino]purin-9-yl]tetrahydrothiophene-3,4-diol]
activity at 10 µM (read-out: Palloidin Area): 20 to 50% | activity at 10 µM (read-out: Palloidin Intensity): 20 to 50% | activity at 10 µM (read-out: Palloidin Length): 20 to 50%

CC#Cc1nc(N[C@H]2CCc3ccccc32)c2ncn([C@@H]3SC[C@@H](O)[C@H]3O)c2n1 [Example 2, (2R,3R,4S)-2-[6-[[(1S)-indan-1-yl]amino]-2-prop-1-ynyl-purin-9-yl]tetrahydrothiophene-3,4-diol]
activity at 10 µM (read-out: Palloidin Area): > 80% | activity at 10 µM (read-out: Palloidin Intensity): > 80% | activity at 10 µM (read-out: Palloidin Length): > 80%
